This is an account of results in US8410288B2, “Polymorphs of Saxagliptin hydrochloride and processes for preparing them” (Teva Pharmaceutical Industries Ltd., priority 2010, dated 2013).

Type in all cases: physicochemical
Series [1] is described as follows: Particle morphology (SEM), filterability and powder flowability. Conditions: small plate to rod-shaped particles. The source says:
Equipment: Jeol JSM-5800 scanning microscope, Sputtered with gold by Edwards S150 sputter coater

Series [2] in a line: Tapped density measurement. As to conditions: 450 mg sample; for tapped density: 10 ml graduated cylinder, tapped 200 times; for volume of sample after tapping: 10 ml measuring flask, tapped 200 times with equal force. Here is the method: Samples were tapped the same number of times (200 times) with equal force. Volume of each sample was recorded: (1.4 ml for Form K; 1.6 ml for H2-1).

Series [3] in a line: Solubility measurement (time to clear solution in distilled water). Conditions: compared to other solid state forms of Saxagliptin hydrochloride. Here is the method: Equal mass of samples was suspended in equal volume of distilled water. Suspensions were slightly mixed, time was recorded at the moment of clear solution appearance.

Structures can show the parent of a compound that is named as a salt.

For the molecule `N#C[C@@H]1C[C@@H]2C[C@@H]2N1C(=O)[C@@H](N)C12CC3CC(CC(O)(C3)C1)C2` [form D, Saxagliptin hydrochloride], the “filterability and powder flowability” value in series [1] was “good filterability and powder flowability properties”.

Turning to `N#C[C@@H]1C[C@@H]2C[C@@H]2N1C(=O)[C@@H](N)C12CC3CC(CC(O)(C3)C1)C2` [form H2-1, Saxagliptin hydrochloride dihydrate, reference compound], in series [2] (hydrochloride dihydrate), the tapped density entry is listed as “about 0.28 g/ml” and the “volume of sample after tapping” value worked out at 1.6 mL.

`N#C[C@@H]1C[C@@H]2C[C@@H]2N1C(=O)[C@@H](N)C12CC3CC(CC(O)(C3)C1)C2` [form K, Saxagliptin hydrochloride]: in series [2] (hydrochloride), the tapped density result was “about 0.32 g/ml” and the “volume of sample after tapping” value came to 1.4 mL.

Take `N#C[C@@H]1C[C@@H]2C[C@@H]2N1C(=O)[C@@H](N)C12CC3CC(CC(O)(C3)C1)C2` [form Z, Saxagliptin hydrochloride]: in series [3], the dissolution rate result is recorded as “high dissolution rate”.
